These results are taken from patent publication US11414374B2, “Crystalline forms of vilanterol trifenatate and processes for their preparation” (Hovione Scientia Limited, priority 2017, dated 2022).

What all share (assay type): physicochemical
A short description of data set [1]: XRPD after Grinding. To be noted: resulting form after grinding.
A short description of data set [2]: TGA / TGA-EGA thermogravimetric analysis with evolved gas analysis. To be noted: for EGA: evolved solvent identified; for TGA overall weight loss: overall loss of the named solvent(s). Here is the method: The analysis was carried out using the Mettler Toledo TGA/DSC1. The sample was weighed in an aluminum pan hermetically sealed with an aluminum pierced cover. The analysis was performed heating the sample from 25° C. to 320° C. at 10° C./min. TGA-FTIR coupled with Thermo Nicoled is 10 spectometer. The analysis was carried out using the mettler toledo TGA/DSC1. The sample was weighed in an aluminum pan hermetically sealed with an aluminum pierced cover. The analysis was performed heating the sample from 25° C. to 320° C. at 10° C./min. The evolved gas is compared with ft-ir spectra database for identification.

A short description of data set [3]: Stability test (exposed sample 16 h), form by XRPD. To be noted: resulting form.
A short description of data set [4]: Storage stability of exposed powder at 25° C. and 60% RH for seven days, compared by XRPD. To be noted: 25° C. 60% RH, 7 d, resulting form. Here is the method:
Approximately 30 mg of exposed powder of comparative form 1 and new forms II and III, respectively, were stored at 25′C and 60% RH for seven days. Each powder was then analyzed by XRPD and its diffraction pattern was compared with that of untreated sample.

The nature of data set [5]: Dynamic vapor sorption (DVS) analysis / hygroscopicity (EP 7.0 classification). To be noted: for Hygroscopically (DVS): DVS hygroscopicity class; for XRPD after DVS: resulting form after DVS. Here is the method:
The hygroscopicity value is directly obtained from the sorption row at 80% RH, cycle 1.
Hygroscopicity of a sample of each of new form II and comparative form I was determined using the protocol provided below in conditions of 80% RH and 25° C.
The sample was subjected to DVS measuring using SMS-DVS intrinsic. The kinetic moisture sorption measurement was performed at 25° C. and in a RH % range described in the following: • From 40% RH to 90% RH • Form 90% RH to 0% RH • From 0% RH to 90% RH • From 90% RH to 0% RH
The sample was analyzed by XRPD after the analysis.
The hygroscopicity was calculated using the following equation: % Weight Change=[(W2−W1)/W1]*100 W1: weight of sample at the start of the experiment (25° C. and 40% RH) W2: weight of sample at 25° C. and 80% RH in the first absorption cycle

Data set [6] can be described thus: DSC - differential scanning calorimetry. As to conditions: for DSC (onset) endo. degradation: endothermic event: degradation; for DSC (onset) endo. solvent loss: endothermic event: solvent loss; for DSC (onset) endo. solvent loss + melting: endothermic event: solvent loss + melting (Form 6: + Form 2 melting; Form 14: + Form 3 melting). Here is the method: The analysis was carried out using a DSC Q200 TA instruments equipped with a refrigerator cooling system (RCS40) and autosampler. The sample was weighed in an aluminum hermetic pan with pinhole. The analysis was performed heating the sample from 25° C. to 350° C. at 10° C./min.
(In general: In DSC, transitions show as peaks or steps in heat flow.)

Data set [7] in a line: Stability test (60° C. 75% RH-3 d), form by XRPD. To be noted: resulting form.
A short description of data set [8]: Stability test (sealed vial 18 h), form by XRPD. To be noted: resulting form.

Consider `OCc1cc([C@@H](O)CNCCCCCCOCCOCc2c(Cl)cccc2Cl)ccc1O` [form XI, vilanterol trifenatate], for which the “XRPD after Grinding” value in data set [1] (listed as Form 11) is “Form 12”. Besides, in data set [2] (listed as Form 11), the EGA result was “Cyclohexane and 2-”; the “TGA overall weight loss” value was “loss of 51% w/w”. In data set [3] (listed as Form 11), the “Stability test (exposed sample 16 h)” value is on record as “Form 11”. Besides, in data set [4] (listed as Form 11), the “Stability test (25° C. 60% RH-7 d)” value is “Form 1 (start”. In data set [5] (listed as Form 11), the “Hygroscopically (DVS)” value is “Slightly hygroscopic (Increase in mass is less than 2% and equal to or greater than 0.2%)”; the “XRPD after DVS” value is given as “Ascribable to Form 11”. Also, the “DSC (onset) endo. Form 1 melting” value in data set [6] (endothermic event: Form 1 melting, listed as Form 11) was “endo. 135 °C Form 1”. Moreover, in data set [6] (listed as Form 11), the “DSC (onset) endo. degradation” value is “endo. 188.6 °C” and the “DSC (onset) endo. solvent loss” value was “endo. 50-100 °C solvent loss”. Further, the “Stability test (60° C. 75% RH-3 d)” value in data set [7] (listed as Form 11) is recorded as “Form 1 (almost”. In addition, the “Stability test (sealed vial 18 h)” value in data set [8] (listed as Form 11) was “Form 11”.
With `OCc1cc([C@@H](O)CNCCCCCCOCCOCc2c(Cl)cccc2Cl)ccc1O` [form IX, vilanterol trifenatate], the “XRPD after Grinding” value in data set [1] (listed as Form 9) is given as “Amorphous”. The EGA result in data set [2] (listed as Form 9) is given as “Nitromethane”. Further, the “Stability test (exposed sample 16 h)” value in data set [3] (listed as Form 9) is reported as “Form 9”. For the same compound, in data set [4] (listed as Form 9), the “Stability test (25° C. 60% RH-7 d)” value is “Form 9”. For the same compound, in data set [5] (listed as Form 9), the “Hygroscopically (DVS)” value is “Slightly” and the “XRPD after DVS” value is on record as “Low crystallinity”. In data set [6] (listed as Form 9), the “DSC (onset) endo. degradation” value was “endo. 188 °C”, the “DSC (onset) endo. solvent loss + melting” value is “endo. 100 °C solvent” and the “DSC (onset) endo. solvent loss” value is “endo. 68 °C solvent loss”. For the same compound, in data set [7] (listed as Form 9), the “Stability test (60° C. 75% RH-3 d)” value is reported as “Partial conversion”. Moreover, in data set [8] (listed as Form 9), the “Stability test (sealed vial 18 h)” value is listed as “Form 9”.
For the compound `OCc1cc([C@@H](O)CNCCCCCCOCCOCc2c(Cl)cccc2Cl)ccc1O` [form VIII, vilanterol trifenatate], in data set [1] (listed as Form 8), the “XRPD after Grinding” value is “Strong crystallinity”. Also, in data set [2] (listed as Form 8), the EGA result is on record as “Anisole” and the “TGA overall weight loss” value is listed as “of approx.. 68% w/w”. Besides, the “Stability test (exposed sample 16 h)” value in data set [3] (listed as Form 8) is “Form 8”. The “Stability test (25° C. 60% RH-7 d)” value in data set [4] (listed as Form 8) is on record as “Strong crystallinity”. Moreover, in data set [5] (listed as Form 8), the “Hygroscopically (DVS)” value is on record as “Not hygroscopic” and the “XRPD after DVS” value is “Form 8”. In addition, in data set [6] (listed as Form 8), the “DSC (onset) endo. degradation” value was “endo. 191 °C”, the “DSC (onset) endo. solvent loss + melting” value was “endo. 136 °C solvent” and the “DSC (onset) endo. solvent loss” value was “endo. 66 °C solvent loss”. In data set [7] (listed as Form 8), the “Stability test (60° C. 75% RH-3 d)” value is listed as “Partial conversion”. Moreover, in data set [8] (listed as Form 8), the “Stability test (sealed vial 18 h)” value was “Form 8”.
In the case of `OCc1cc([C@@H](O)CNCCCCCCOCCOCc2c(Cl)cccc2Cl)ccc1O` [form X, vilanterol trifenatate], the “XRPD after Grinding” value in data set [1] (listed as Form 10) was “Amorphous”. Further, the EGA result in data set [2] (listed as Form 10) is listed as “Ethanol”. In addition, the “Stability test (exposed sample 16 h)” value in data set [3] (listed as Form 10) was “Form 10”. Further, in data set [4] (listed as Form 10), the “Stability test (25° C. 60% RH-7 d)” value was “Form 1”. In data set [5] (listed as Form 10), the “Hygroscopically (DVS)” value was “Slightly” and the “XRPD after DVS” value was “Form 1”. Besides, in data set [6] (listed as Form 10), the “DSC (onset) endo. degradation” value was “endo. 188 °C” and the “DSC (onset) endo. solvent loss + melting” value was “endo. 69 °C solvent”. Moreover, the “Stability test (60° C. 75% RH-3 d)” value in data set [7] (listed as Form 10) is listed as “Form 1”. In data set [8] (listed as Form 10), the “Stability test (sealed vial 18 h)” value is “Form 10”.
